Laboratory results reported in the NIST ThermoML archive (doi:10.1021/je700725j).
± gives the expanded uncertainty stated by the source.

Conditions: Liquid

Structure (SMILES) | vapor or sublimation pressure (273.15 K) [kPa] | vapor or sublimation pressure (283.15 K) [kPa] | vapor or sublimation pressure (293.15 K) [kPa] | vapor or sublimation pressure (303.15 K) [kPa] | vapor or sublimation pressure (313.15 K) [kPa] | vapor or sublimation pressure (323.15 K) [kPa]
CCCC [butane] | 104 ± 2 | 150 ± 2 | 208 ± 2 | 284 ± 3 | 378 ± 3 | 494 ± 4
CC(F)(F)F [1,1,1-trifluoroethane] | 620 ± 4 | 837 ± 5 | 1104 ± 7 | 1432 ± 9 | 1830 ± 11 | 2298 ± 14
